From ChEMBL document CHEMBL1135660, “Design, synthesis, and tripeptidyl peptidase II inhibitory activity of a novel series of (S)-2,3-dihydro-2-(4-alkyl-1H-imidazol-2-yl)-1H-indoles” (J Med Chem, 2002)

Target: Tripeptidyl-peptidase 2 (Rattus norvegicus, UniProt Q64560)
Assay: Inhibitory activity against tripeptidyl peptidase II purified from rat liver

Chain of Tripeptidyl-peptidase 2 (Q64560 whole entry): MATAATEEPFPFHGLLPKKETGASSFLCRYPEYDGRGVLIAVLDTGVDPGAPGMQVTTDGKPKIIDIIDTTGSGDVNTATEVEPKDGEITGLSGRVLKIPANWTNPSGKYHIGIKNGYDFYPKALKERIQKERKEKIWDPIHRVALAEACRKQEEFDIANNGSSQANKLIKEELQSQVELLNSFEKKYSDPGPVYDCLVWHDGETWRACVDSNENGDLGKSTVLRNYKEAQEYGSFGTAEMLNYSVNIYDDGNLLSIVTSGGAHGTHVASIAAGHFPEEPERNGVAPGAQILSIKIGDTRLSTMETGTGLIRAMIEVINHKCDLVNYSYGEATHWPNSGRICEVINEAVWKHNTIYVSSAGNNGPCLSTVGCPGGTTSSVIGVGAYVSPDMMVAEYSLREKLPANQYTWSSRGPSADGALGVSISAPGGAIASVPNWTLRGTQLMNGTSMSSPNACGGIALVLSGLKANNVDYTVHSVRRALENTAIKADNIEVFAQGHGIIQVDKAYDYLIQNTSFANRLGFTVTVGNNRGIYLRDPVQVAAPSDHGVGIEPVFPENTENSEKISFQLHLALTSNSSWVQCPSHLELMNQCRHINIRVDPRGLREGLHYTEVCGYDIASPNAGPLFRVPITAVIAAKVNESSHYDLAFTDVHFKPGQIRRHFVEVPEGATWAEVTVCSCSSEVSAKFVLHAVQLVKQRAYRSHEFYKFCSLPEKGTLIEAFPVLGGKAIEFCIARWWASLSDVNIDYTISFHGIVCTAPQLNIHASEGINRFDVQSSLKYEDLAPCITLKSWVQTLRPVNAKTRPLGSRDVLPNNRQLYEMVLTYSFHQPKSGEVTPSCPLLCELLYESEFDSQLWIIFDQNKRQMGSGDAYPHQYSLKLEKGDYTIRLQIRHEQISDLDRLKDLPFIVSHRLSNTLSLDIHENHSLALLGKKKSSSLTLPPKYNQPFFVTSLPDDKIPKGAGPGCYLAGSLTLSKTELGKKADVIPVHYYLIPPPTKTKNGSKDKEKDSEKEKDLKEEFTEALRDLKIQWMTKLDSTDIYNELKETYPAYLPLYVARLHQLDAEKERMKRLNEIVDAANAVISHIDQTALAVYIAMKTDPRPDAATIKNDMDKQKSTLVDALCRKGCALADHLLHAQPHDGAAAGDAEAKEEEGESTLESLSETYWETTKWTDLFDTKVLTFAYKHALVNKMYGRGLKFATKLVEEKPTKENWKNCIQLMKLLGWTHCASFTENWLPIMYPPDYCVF

SMILES | IC50
CCCc1cnc([C@@H]2Cc3ccccc3N2C(C)=O)[nH]1 | > 10 µM
CC[C@@H]1NC(=O)[C@@H]2Cc3ccccc3N2C1=O | > 10 µM
CC[C@H](N)C(=O)N1c2ccccc2C[C@H]1c1ncc(C)[nH]1 | 0.023 µM
CCc1c[nH]c([C@@H]2Cc3ccccc3N2C(=O)[C@H](C)N)n1 | > 10 µM
